Results published in publication PMC11672292, “Discovery of Balasubramide Derivative with Tissue‐Specific Anti‐Inflammatory Activity Against Acute Lung Injury by Targeting VDAC1” (Advanced Science, 2024).
Where two headings read alike, the source gives them in different places.

Experiments:
mouse BMDMs = experiment: LPS-induced TNF-α release in BMDMs (ELISA); assay type: cell-based; settings: BMDM, read-out: IC50, inhibition of LPS-induced TNF-α release
Method: The anti‐inflammatory effects of all (+)‐balasubramide derivatives were evaluated in Lipopolysaccharide (LPS, L2630, Sigma–Aldrich, USA)‐induced macrophage inflammation model. RAW264.7 cells were pretreated with various compounds or (+)3C‐20 at different concentrations for 3 h, and then stimulated with LPS (100 ng mL^−1) for 2 h for the detection of pro‐inflammatory factors expressions. Similarly, following 3 h co‐incubation with (+)3C‐20, mouse BMDMs were stimulated with LPS (100 ng mL^−1) for 3 h. TNF‐α protein in the culture medium supernatant was measured by a commercial ELISA kit (#1 217 202, DAKEWE, China) following the manufacture's protocols.

[1] = Pharmacokinetics and tissue distribution after single intravenous administration; assay type: in vivo, mouse; settings: mice; for Vd: read-out: VdSS; for Kp: read-out: Tissues/plasma ratio
Method: Pharmacokinetic studies were performed as previously described.^[ [63] ^] Briefly, ICR mice were fasted without water for 16 h before drug administration and allowed access to food and water freely after administration. After given a single intravenous administration of (+)3C‐20 (10 mg kg^−1), mice were anesthetized with isoflurane, and blood samples were collected through jugular vein at different time points (0, 0.083, 0.25, 0.5, 1, 2, 4, 6, 8, 24 h), as well as at different time points (0.5, 2, 6, 24 h) mice were euthanized and brain, heart, liver, spleen, lung, and kidney were collected. Blood samples were collected in tubes containing sodium heparin and centrifuged at 5000 rpm at 4 °C for 10 min to prepare plasma, tissues were cleaned in prechilled saline and homogenized to be tested, and all samples were stored at […]. LC‐MS/MS was performed to determine the concentrations of (+)3C‐20 in the plasma and tissues of the mice and to calculate the related pharmacokinetic parameters, which were then used to investigate the pharmacokinetic characteristics and tissue distribution of (+)3C‐20 in mice.

BMDMs = experiment: Cytosolic mtDNA measurement (qPCR) in BMDMs; assay type: cell-based, mouse; settings: 10 µM
Method: BMDMs were stimulated and treated with 10 µM (+)3C‐20 as indicated. Cytosolic mtDNA collection was carried out as previously described.^[ [25] ^] Briefly, BMDMs were washed twice with PBS, harvested, and resuspended in 200 µL mitochondria isolation reagent (Beyotime, C3601) with protease and phosphatase inhibitor cocktail. Cell resuspension was triturated with a glass homogenizer and centrifuged at 11 000 × g for 10 min at 4 °C to pelleted down mitochondria and cell membrane, and the remaining supernatant contained the cytosolic mtDNA that were measured. After DNA purification from the supernatant with FastPure Cell DNA Isolation Mini Kit (DC102‐01, Vazyme, China) according to the manufacturer's instruction, qPCR was performed using specific mtDNA primers (D‐loop, D‐loop1, D‐loop2, D‐loop3).

in vivo = settings: mouse, iv
Excerpt: To test the safety of (+)3C‐20 in mice, as previously reported,^[ [31] ^] we estimated the acute toxicity of (+)3C‐20 in mice using a sequential method.

[2] = ICR, mouse, brain, iv, single i.v. 10 mg/kg, read-out: Concentration of (+)3C-20, Brain
[3] = ICR, mouse, heart, iv, single i.v. 10 mg/kg, read-out: Concentration of (+)3C-20, Heart
[4] = ICR, mouse, iv, single i.v. 10 mg/kg, Blood
[5] = ICR, mouse, iv, single i.v. 10 mg/kg, Brain
[6] = ICR, mouse, iv, single i.v. 10 mg/kg, Heart
[7] = ICR, mouse, iv, single i.v. 10 mg/kg, Kidney
[8] = ICR, mouse, iv, single i.v. 10 mg/kg, Liver
[9] = ICR, mouse, iv, single i.v. 10 mg/kg, Lung
[10] = ICR, mouse, iv, single i.v. 10 mg/kg, Plasma
[11] = ICR, mouse, iv, single i.v. 10 mg/kg, Spleen
[12] = ICR, mouse, kidney, iv, single i.v. 10 mg/kg, read-out: Concentration of (+)3C-20, Kidney
[13] = ICR, mouse, liver, iv, single i.v. 10 mg/kg, read-out: Concentration of (+)3C-20, Liver
[14] = ICR, mouse, lung, iv, single i.v. 10 mg/kg, read-out: Concentration of (+)3C-20, Lung
[15] = ICR, mouse, spleen, iv, single i.v. 10 mg/kg, read-out: Concentration of (+)3C-20, Spleen

O=C(CCc1ccc(C(F)(F)F)cc1)O[C@@H]1C(=O)NCCc2c([nH]c3ccccc23)[C@H]1c1ccc(C(F)(F)F)cc1 [(+)3C-20]
IC50 (mouse BMDMs): 3.64 µM
concentration at 0.5 h [1, 2]: 518 ± 66 ng/g
concentration at 2 h [1, 2]: 317 ± 86.1 ng/g
concentration at 6 h [1, 2]: 113 ± 11.8 ng/g
concentration at 0.5 h [1, 3]: 4510 ± 630 ng/g
concentration at 2 h [1, 3]: 1270 ± 335 ng/g
concentration at 6 h [1, 3]: 123 ± 12.7 ng/g
half-life ([1]; ICR, mouse, iv, i.v. 10 mg kg^−1, serum and plasma, read-out: average half-life (converted)): 5.3 ± 0.3 h
AUC(0-inf) [1, 4]: 3.6 µg·h/mL
AUC(0-t) [1, 4]: 3.47 µg·h/mL
C0 [1, 4]: 3.95 µg/mL
Cmax [1, 4]: 2.34 µg/mL
clearance [1, 4]: 2.78 L/h/kg
k el [1, 4]: 3.36e-05 s⁻¹
Vd [1, 4]: 12.3 L/kg
half-life ([1]; ICR, mouse, iv, single i.v. 10 mg/kg, Blood, read-out: t1/2 (converted)): 5.72 h
AUC(0-inf) [1, 5]: 3.16 µg·h/mL
AUC(0-t) [1, 5]: 2.98 µg·h/mL
C0 [1, 5]: 0.61 µg/mL
Cmax [1, 5]: 0.518 µg/mL
k el [1, 5]: 3.44e-05 s⁻¹
Kp [1, 5]: 0.699
half-life ([1]; ICR, mouse, iv, single i.v. 10 mg/kg, Brain, read-out: t1/2 (converted)): 5.57 h
AUC(0-inf) [1, 6]: 10.2 µg·h/mL
AUC(0-t) [1, 6]: 9.98 µg·h/mL
C0 [1, 6]: 6.89 µg/mL
Cmax [1, 6]: 4.51 µg/mL
k el [1, 6]: 0.000178 s⁻¹
Kp [1, 6]: 2.34
half-life ([1]; ICR, mouse, iv, single i.v. 10 mg/kg, Heart, read-out: t1/2 (converted)): 1.08 h
AUC(0-inf) [1, 7]: 3.98 µg·h/mL
AUC(0-t) [1, 7]: 3.78 µg·h/mL
C0 [1, 7]: 1.96 µg/mL
Cmax [1, 7]: 1.45 µg/mL
k el [1, 7]: 0.000134 s⁻¹
Kp [1, 7]: 0.885
half-life ([1]; ICR, mouse, iv, single i.v. 10 mg/kg, Kidney, read-out: t1/2 (converted)): 1.44 h
AUC(0-inf) [1, 8]: 15.5 µg·h/mL
AUC(0-t) [1, 8]: 14.9 µg·h/mL
C0 [1, 8]: 6.05 µg/mL
Cmax [1, 8]: 5.01 µg/mL
k el [1, 8]: 0.000145 s⁻¹
Kp [1, 8]: 3.5
half-life ([1]; ICR, mouse, iv, single i.v. 10 mg/kg, Liver, read-out: t1/2 (converted)): 1.33 h
AUC(0-inf) [1, 9]: 22.2 µg·h/mL
AUC(0-t) [1, 9]: 22.1 µg·h/mL
C0 [1, 9]: 11.7 µg/mL
Cmax [1, 9]: 7.78 µg/mL
k el [1, 9]: 5.39e-05 s⁻¹
Kp [1, 9]: 5.17
half-life ([1]; ICR, mouse, iv, single i.v. 10 mg/kg, Lung, read-out: t1/2 (converted)): 3.58 h
AUC(0-inf) [1, 10]: 4.77 µg·h/mL
AUC(0-t) [1, 10]: 4.7 µg·h/mL
C0 [1, 10]: 6.28 µg/mL
Cmax [1, 10]: 4.01 µg/mL
clearance [1, 10]: 2.11 L/h/kg
k el [1, 10]: 3.97e-05 s⁻¹
Vd [1, 10]: 6.1 L/kg
half-life ([1]; ICR, mouse, iv, single i.v. 10 mg/kg, Plasma, read-out: t1/2 (converted)): 4.88 h
AUC(0-inf) [1, 11]: 9.84 µg·h/mL
AUC(0-t) [1, 11]: 9.56 µg·h/mL
C0 [1, 11]: 6.8 µg/mL
Cmax [1, 11]: 4.37 µg/mL
k el [1, 11]: 0.000161 s⁻¹
Kp [1, 11]: 2.24
half-life ([1]; ICR, mouse, iv, single i.v. 10 mg/kg, Spleen, read-out: t1/2 (converted)): 1.2 h
concentration at 0.5 h [1, 12]: 5010 ± 516 ng/g
concentration at 2 h [1, 12]: 2840 ± 692 ng/g
concentration at 6 h [1, 12]: 299 ± 25.1 ng/g
concentration at 0.5 h [1, 13]: 4370 ± 1010 ng/g
concentration at 2 h [1, 13]: 1160 ± 434 ng/g
concentration at 6 h [1, 13]: 159 ± 51.7 ng/g
concentration at 0.5 h [1, 14]: 7780 ± 525 ng/g
concentration at 2 h [1, 14]: 2300 ± 281 ng/g
concentration at 6 h [1, 14]: 440 ± 50.4 ng/g
concentration at 24 h ([1]; ICR, mouse, lung, iv, single i.v. 10 mg/kg, 24 h, read-out: Concentration of (+)3C-20, Lung): 23.8 ± 9.4 ng/g
concentration at 0.5 h [1, 15]: 1450 ± 79.6 ng/g
concentration at 2 h [1, 15]: 595 ± 192 ng/g
concentration at 6 h [1, 15]: 98.7 ± 60 ng/g
lung tissue/plasma ratio in various organs ([1]; i.v. 10 mg kg^−1): highest
AUMC0-inf ([1]; single i.v. 10 mg/kg, Blood): 15950.5 h·h·ng·mL^-1
AUMC0-t ([1]; single i.v. 10 mg/kg, Blood): 11638.5 h·h·ng·mL^-1
MRTIV ([1]; single i.v. 10 mg/kg, Blood): 4.425 h
Tissues/plasma ratio ([1]; single i.v. 10 mg/kg, Blood): 0.734
AUMC0-inf ([1]; single i.v. 10 mg/kg, Brain): 19922 h·h·ng·mL^-1
AUMC0-t ([1]; single i.v. 10 mg/kg, Brain): 14234 h·h·ng·mL^-1
MRTIV ([1]; single i.v. 10 mg/kg, Brain): 6.3 h
AUMC0-inf ([1]; single i.v. 10 mg/kg, Heart): 12176 h·h·ng·mL^-1
AUMC0-t ([1]; single i.v. 10 mg/kg, Heart): 10724 h·h·ng·mL^-1
MRTIV ([1]; single i.v. 10 mg/kg, Heart): 1.2 h
AUMC0-inf ([1]; single i.v. 10 mg/kg, Kidney): 6846 h·h·ng·mL^-1
AUMC0-t ([1]; single i.v. 10 mg/kg, Kidney): 5185 h·h·ng·mL^-1
MRTIV ([1]; single i.v. 10 mg/kg, Kidney): 1.72 h
AUMC0-inf ([1]; single i.v. 10 mg/kg, Liver): 26259 h·h·ng·mL^-1
AUMC0-t ([1]; single i.v. 10 mg/kg, Liver): 21734 h·h·ng·mL^-1
MRTIV ([1]; single i.v. 10 mg/kg, Liver): 1.69 h
AUMC0-inf ([1]; single i.v. 10 mg/kg, Lung): 54321 h·h·ng·mL^-1
AUMC0-t ([1]; single i.v. 10 mg/kg, Lung): 50741 h·h·ng·mL^-1
MRTIV ([1]; single i.v. 10 mg/kg, Lung): 2.45 h
AUMC0-inf ([1]; single i.v. 10 mg/kg, Plasma): 13980 h·h·ng·mL^-1
AUMC0-t ([1]; single i.v. 10 mg/kg, Plasma): 11982 h·h·ng·mL^-1
MRTIV ([1]; single i.v. 10 mg/kg, Plasma): 2.91 h
AUMC0-inf ([1]; single i.v. 10 mg/kg, Spleen): 12590 h·h·ng·mL^-1
AUMC0-t ([1]; single i.v. 10 mg/kg, Spleen): 10456 h·h·ng·mL^-1
MRTIV ([1]; single i.v. 10 mg/kg, Spleen): 1.28 h
increase in cytosolic mtDNA caused by LPS (BMDMs): significantly inhibited
LD50 (in vivo): 185 mg/kg
